Data taken from US5250673A, “2'-deoxy-5-substituted uridine derivatives” (priority 1983, dated 1993).
Like-named read-outs stand apart in the source and are kept apart here.

Columns and labels:
Type in all cases: in vivo, mouse
[1] = test system: Sarcoma 180; experiment: antitumor activity: 50% inhibition of tumor enhancement, Sarcoma 180 transplanted in mice; details: oral, once a day, 7 days, male ICR/JCL mice, tumor weight day 10
Protocol: (a) Method for determining of antitumor activity value
5×10^6 Cells of mouse-transplantable tumor Sarcoma 180 were transplanted to each male ICR/JCL-strain mouse (having a weight of 27 to 30 g) subcutaneously at the back. Each test compound dissolved or suspended in 0.1% Tween 80^(*) - 0.5% CMC solution was orally administered to various test groups each consisting of 7 mice once a day for 7 consecutive days from the next day of tumor transplanting, in an amount of 1.0 ml of solution or suspension per 100 g weight per day. As to a control group, the same Tween 80-CMC solution containing no test compound was orally administered once a day for 7 consecutive days in an amount of 1.0 ml per 100 g weight per day. (*) (A trademark for a series of surface which is a polyoxyethylene derivative of fatty acid partial ester of sorbitol anhydride, manufactured by I.C.I. U.S., Inc.)
On the tenth day from the tumor transplanting, an average tumor weight for each administration level of each test compound was determined. This weight was compared with an average tumor weight in control group, and the ratio of tumor enhancement inhibition at each administration level of each test compound compared with control group was calculated. From these calculations, the administration level of each test compound at which the ratio of tumor enhancement inhibition become 50% was obtained and the level (amount) was taken as the antitumor activity value of each compound.

[2] = toxicity value: 50% inhibition of weight increase of test animal (Sarcoma 180 tumor-transplanted mice); details: mouse, sarcoma 180 bearing mice, oral, once a day, 7 days, male ICR/JCL mice, read-out: Toxicity value (B) Administration amount of test compound at which weight increase of test animal is inhibited by 50% compared with that of control group
Protocol: (b) Method for determining toxicity value
Hitherto, toxicity values of anti-malignant tumor agents have been calculated on the bases of LD50 of test animals, in most cases. […] Therefore, in the present test, accumulated toxicity, which well represents the toxicity of anti-malignant tumor agents, was focused on and, as an indication for sensitive detection of the accumulated toxicity, inhibition of weight increase of test animal was measured. That is, when antitumor activity value was determined in the above item (a), the weight of each mouse of each test groups for each test compounds was measured daily from the day of tumor transplanting, immediately before administration.
On the day of tumor weight measurement, the average net weight increase of each mouse of each test groups for each test compounds from the day of tumor transplanting was measured. These increases were compared with the average net weight increase of control group and the ratio of net weight increase of each test groups of each test compounds to that of control group was calculated. From these calculations, there was obtained an addition amount of each test compound at which weight increase is inhibited by 50% compared with that of control group, and that amount was taken as a toxicity value of each compound.

[3] = test system: Sarcoma 180; experiment: calculation of therapeutic index (B)/(A), Sarcoma 180 mice; parameters: key: C = toxicity value (B) / antitumor activity value (A); details: oral, once a day, 7 days
Protocol: (c) Calculation of therapeutic index
By the use of the antitumor activity value (hereinafter referred to as A) and the toxicity value (hereinafter referred to as B) of each compound, which were obtained in the above items (a) and (b), respectively, therapeutic index (hereinafter referred to as C) was calculated in accordance with the following equation.
Therapeutic index (C)=^(B)(A)

Row | SMILES | Antitumor activity value (A) Administration amount of test compound at which tumor enhancement is inhibited by 50% compared with that of control group ([1]; Table 1-a) [mg/kg/day] | TD50 at 240 h ([2]; Table 1-a) [mg/kg] | Therapeutic index (C) = (B)/(A) ([3]; Table 1-a) | Antitumor activity value (A) Administration amount of test compound at which tumor enhancement is inhibited by 50% compared with that of control group ([1]; Table 1-b) [mg/kg/day] | TD50 at 240 h ([2]; Table 1-b) [mg/kg] | Therapeutic index (C) = (B)/(A) ([3]; Table 1-b) | further results
1 | O=c1[nH]c(=O)n([C@H]2C[C@H](O)[C@@H](COCc3ccc(Cl)cc3)O2)cc1C(F)(F)F [Compound 11] | 18 | 22 | 1.22 | – | – | – | –
2 | O=c1[nH]c(=O)n([C@H]2C[C@H](OCc3ccc(Cl)cc3)[C@@H](CO)O2)cc1C(F)(F)F [Compound 12] | 12 | 17 | 1.42 | – | – | – | –
3 | Cc1ccccc1COC[C@H]1O[C@@H](n2cc(C(F)(F)F)c(=O)[nH]c2=O)C[C@@H]1O [Compound 13, 2'-deoxy-5'-O-(2-methylbenzyl)-5-trifluoromethyluridine] | 48 | 65 | 1.35 | – | – | – | –
4 | Cc1ccccc1CO[C@H]1C[C@H](n2cc(C(F)(F)F)c(=O)[nH]c2=O)O[C@@H]1CO [Compound 14] | 40 | 57 | 1.43 | – | – | – | –
5 | Cc1cccc(COC[C@H]2O[C@@H](n3cc(C(F)(F)F)c(=O)[nH]c3=O)C[C@@H]2O)c1 [Compound 15, 2'-deoxy-5'-O-(3-methylbenzyl)-5-trifluoromethyluridine] | 24 | 41 | 1.71 | – | – | – | –
6 | Cc1cccc(CO[C@H]2C[C@H](n3cc(C(F)(F)F)c(=O)[nH]c3=O)O[C@@H]2CO)c1 [Compound 16, 2'-deoxy-3'-O-(3-methylbenzyl)-5trifluoromethyluridine] | 31 | 45 | 1.45 | – | – | – | –
7 | COc1ccc(COC[C@H]2O[C@@H](n3cc(C(F)(F)F)c(=O)[nH]c3=O)C[C@@H]2O)cc1 [Compound 17] | 45 | 51 | 1.13 | – | – | – | –
8 | COc1ccc(CO[C@H]2C[C@H](n3cc(C(F)(F)F)c(=O)[nH]c3=O)O[C@@H]2CO)cc1 [Compound 18, 2'-deoxy-3'-O-(4-methoxybenzyl)-5-trifluoromethyluridine] | 52 | 60 | 1.15 | – | – | – | –
9 | O=c1c(C(F)(F)F)cn([C@H]2C[C@H](O)[C@@H](COCc3ccccc3)O2)c(=O)n1C1CCCO1 (stereo partly shown) [Compound 21, 3-(2-tetrahydrofuranyl)-2'-deoxy-5'-O-benzyl-5-trifluoromethyluridine] | 22 | 30 | 1.36 | – | – | – | –
10 | CCOC[C@H]1O[C@@H](n2cc(C(F)(F)F)c(=O)n(C(=O)c3ccccc3)c2=O)C[C@@H]1O [Compound 24, 3-benzoyl-2'-deoxy-5'-O-ethyl-5-trifluoromethyluridine] | – | – | – | 26 | 36 | 1.38 | –
11 | CCO[C@H]1C[C@H](n2cc(C(F)(F)F)c(=O)n(C(=O)c3ccccc3)c2=O)O[C@@H]1CO [Compound 25, 3-benzoyl-2'-deoxy-3'-O-ethyl-5-trifluoromethyluridine] | – | – | – | 38 | 31 | 0.82 | –
12 | CCCCOC[C@H]1O[C@@H](n2cc(C(F)(F)F)c(=O)n(C(=O)c3ccccc3)c2=O)C[C@@H]1O [Compound 26] | – | – | – | 50 | 74 | 1.48 | –
13 | O=C(c1ccccc1)n1c(=O)c(C(F)(F)F)cn([C@H]2C[C@H](O)[C@@H](COCc3ccccc3)O2)c1=O [Compound 27, 3-benzoyl-5'-O-benzyl-2'-deoxy-5-trifluoromethyluridine] | – | – | – | 25 | 35 | 1.40 | –
14 | O=C(c1ccccc1)n1c(=O)c(C(F)(F)F)cn([C@H]2C[C@H](OCc3ccccc3)[C@@H](CO)O2)c1=O [Compound 28, 3-benzoyl-3'-O-benzyl-2'-deoxy-5-trifluoromethyluridine] | – | – | – | 25 | 35 | 1.40 | –
15 | COC[C@H]1O[C@@H](n2cc(C(F)(F)F)c(=O)[nH]c2=O)C[C@@H]1O [Compound 29] | – | – | – | 48 | 72 | 1.50 | –
16 | CCOC[C@H]1O[C@@H](n2cc(C(F)(F)F)c(=O)[nH]c2=O)C[C@@H]1O [Compound 30, 2'-deoxy-5'-O-ethyl-5-trifluoromethyluridine] | – | – | – | 19 | 32 | 1.68 | –
17 | CCO[C@H]1C[C@H](n2cc(C(F)(F)F)c(=O)[nH]c2=O)O[C@@H]1CO [Compound 31, 2'-deoxy-3'-O-ethyl-5-trifluoromethyluridine] | – | – | – | 20 | 30 | 1.50 | –
18 | O=c1[nH]c(=O)n([C@H]2C[C@H](O)[C@@H](COCc3ccccc3)O2)cc1C(F)(F)F [Compound 32, 2'-deoxy-5'-O-benzyl-5-trifluoromethyluridine] | – | – | – | 19 | 34 | 1.79 | –
19 | O=c1[nH]c(=O)n([C@H]2C[C@H](OCc3ccccc3)[C@@H](CO)O2)cc1C(F)(F)F [Compound 33, 3'-O-benzyl-2'-deoxy-5-trifluoromethyluridine] | – | – | – | 17 | 32 | – | –
20 | CCOC[C@H]1O[C@@H](n2cc(F)c(=O)n(C(=O)c3ccccc3)c2=O)C[C@@H]1O [Compound 35, 3-benzoyl-2'-deoxy-5'-O-ethyl-5-fluorouridine] | – | – | – | – | – | – | Antitumor activity value (A) Administration amount of test compound at which tumor enhancement is inhibited by 50% compared with that of control group ([1]; Table 1-c): 51 mg/kg/day; TD50 at 240 h ([2]; Table 1-c): 70 mg/kg; Therapeutic index (C) = (B)/(A) ([3]; Table 1-c): 1.37
21 | CCOC[C@H]1O[C@@H](n2cc(F)c(=O)[nH]c2=O)C[C@@H]1O [Compound 39] | – | – | – | – | – | – | Antitumor activity value (A) Administration amount of test compound at which tumor enhancement is inhibited by 50% compared with that of control group ([1]; Table 1-c): 28 mg/kg/day; TD50 at 240 h ([2]; Table 1-c): 67 mg/kg; Therapeutic index (C) = (B)/(A) ([3]; Table 1-c): 2.39
22 | O=c1[nH]c(=O)n([C@H]2C[C@H](OCc3ccccc3)[C@@H](CO)O2)cc1F [Compound 40, 2'-deoxy-3'-O-benzyl-5-fluorouridine] | – | – | – | – | – | – | Antitumor activity value (A) Administration amount of test compound at which tumor enhancement is inhibited by 50% compared with that of control group ([1]; Table 1-c): 17 mg/kg/day; TD50 at 240 h ([2]; Table 1-c): 35 mg/kg
23 | O=c1[nH]c(=O)n([C@H]2C[C@H](O)[C@@H](COCc3ccccc3)O2)cc1F [Compound 41] | – | – | – | – | – | – | Antitumor activity value (A) Administration amount of test compound at which tumor enhancement is inhibited by 50% compared with that of control group ([1]; Table 1-c): 13 mg/kg/day; TD50 at 240 h ([2]; Table 1-c): 30 mg/kg; Therapeutic index (C) = (B)/(A) ([3]; Table 1-c): 2.31
